Test results from US6028195A, “Piperazine derivatives and process for the preparation thereof” (Samjin Pharmaceutical Co., Ltd., priority 1996, dated 2000).
Values after ≈ are worked out from the molar mass of the structure shown. Like-named read-outs stand apart in the source and are kept apart here.

Columns and labels:
Type in all cases: cell-based
HCT-15 (human colon) = assay: SRB assay, in vitro antitumor effect against HCT-15; settings: Homo sapiens; HCT 15, 48 hours; read-out: ED50 (the source's name)
Procedure: (§1) In vitro antitumor effect against human tumor cell lines.
(§2) b. 5×10^3 ~2×10^4 cells were added into each well of 96-well plate and cultured in 5% CO2 incubator, at 37° C., for 24 hours.
(§3) c. Each sample drug was dissolved in a little DMSO and diluted with the used medium to a prescribed concentration for experiments, wherein the final concentration of DMSO was controlled below 0.5%.
(§4) d. Medium of each well cultured for 24 hours as above b. was removed by aspiration. Each 200 μl of drug samples prepared in c. was added into each well and the wells were cultured for 48 hours. Tz(time zero) plates were collected at the point of time drugs were added.
(§5) e. According to the SRB assay method, cell fixing with TCA, staining with 0.4% SRB solution, washing with 1% acetic acid and elution of dye with 10 mM Tris solution were carried out on Tz plates and culture-ended plates, and then, OD values were measured at 520 nm.
(§6) a. Time zero(Tz) value was determined with measuring the SRB protein value at the point of time drugs were added.
(§7) b. Control value(C) was determined with the OD value of an well untreated with drug.
(§8) c. Drug-treated test value(T) was determined with the OD value of drug-treated well.
(§9) d. Effects of drugs were estimated with growth stimulation, net growth inhibition, net killing etc. calculated from Tz, C and T.
(§10) e. If T≥Tz, cellular response function was calculated by 100×(T-Tz)/(C-Tz), and if T<Tz, by 100×(T-Tz)/Tz.

[1] = tested on: A549 (human non-small lung cell); assay: SRB assay, in vitro antitumor effect against A549; settings: Homo sapiens; A549, 48 hours; read-out: ED50 (the source's name)
Procedure: as §1, §2, §3, §4, §5, §6, §7, §8, §9, §10

XF 498 (human CNS) = assay: SRB assay, in vitro antitumor effect against XF 498; settings: Homo sapiens, XF498; XF-498, 48 hours; read-out: ED50 (the source's name)
Procedure: as §1, §2, §3, §4, §5, §6, §7, §8, §9, §10

SKMEL-2 (human melanoma) = assay: SRB assay, in vitro antitumor effect against SKMEL-2; settings: Homo sapiens
Procedure: as §1, §2, §3, §4, §5, §6, §7, §8, §9, §10

SKOV-3 (human ovarian) = assay: SRB assay, in vitro antitumor effect against SKOV-3; settings: Homo sapiens; SK-OV-3, 48 hours; read-out: ED50 (the source's name)
Procedure: as §1, §2, §3, §4, §5, §6, §7, §8, §9, §10

[2] = SK-MEL-2, 48 hours, read-out: ED50 (the source's name)

Row | SMILES | IC50 (HCT-15 (human colon)) [mg/L] | IC50 [1] [mg/L] | IC50 (XF 498 (human CNS)) [mg/L] | IC50 (SKMEL-2 (human melanoma); [2]) [mg/L] | IC50 (SKOV-3 (human ovarian)) [mg/L] | IC50 (SKMEL-2 (human melanoma); SK-MEL-2, 48 h, read-out: ED50) [mg/L]
1 | COc1nc2ccccc2cc1NC(=S)N1CCN(c2cc(Cl)cc(Cl)c2)CC1 [Example 112, 1-[(2-Methoxyquinolin-3-yl)aminothiocarbonyl]-4-(3,5-dichlorophenyl)piperazine] | 0.61 (≈ 1.36 µM) | 0.56 (≈ 1.25 µM) | 2.07 (≈ 4.63 µM) | 0.22 (≈ 0.492 µM) | 6.43 (≈ 14.4 µM) | 
2 | COc1ccc(C)c(N2CCN(C(=O)N(C)c3cc(C)c(C)nc3OC)CC2)c1 [Example 140, 1-[N-(5,6-Dimethyl-2-methoxypyridin-3-yl)-N-methylaminocarbonyl]-4-(5-methoxy-2-methylphenyl)piperazine] | 0.49 (≈ 1.23 µM) | 0.33 (≈ 0.828 µM) | 0.54 (≈ 1.36 µM) | 0.56 (≈ 1.41 µM) | 0.47 (≈ 1.18 µM) | 
3 | COc1ccc(C)c(N2CCN(C(=O)N(Cc3ccccc3)c3cc(C)c(C)nc3OC)CC2)c1 [Example 142, 1-[N-Benzyl-N-(5,6-dimethyl-2-methoxypyridin-3-yl)aminocarbonyl]-4-(5-methoxy-2-methylphenyl)piperazine] | 0.017 (≈ 0.0358 µM) | 0.015 (≈ 0.0316 µM) | 0.026 (≈ 0.0548 µM) | 0.021 (≈ 0.0442 µM) | 0.011 (≈ 0.0232 µM) | 
4 | CCc1nc(OC)c(N(C)C(=O)N2CCN(c3cc(OC)cc(OC)c3)CC2)cc1C [Example 147, 1-[N-(6-Ethyl-2-methoxy-5-methylpyridin-3-yl)-N-methylaminocarbonyl]-4-(3,5-dimethoxyphenyl)piperazine] | 0.18 (≈ 0.42 µM) | 0.031 (≈ 0.0723 µM) | 0.466 (≈ 1.09 µM) |  | 0.092 (≈ 0.215 µM) | 0.024 (≈ 0.056 µM)
5 | CCCc1nc(OC)c(N(C)C(=O)N2CCN(c3cc(OC)cc(OC)c3)CC2)cc1C [Example 148, 1-[N-(2-Methoxy-5-methyl-6-propylpyridin-3-yl)-N-methylaminocarbonyl]-4-(3,5-dimethoxyphenyl)piperazine] | 0.05 (≈ 0.113 µM) | 0.01 (≈ 0.0226 µM) | 0.05 (≈ 0.113 µM) | 0.03 (≈ 0.0678 µM) | 0.07 (≈ 0.158 µM) | 
6 | COc1nc(C)c(C(C)=O)cc1N(C)C(=O)N1CCN(c2cc(C)cc(C)c2)CC1 [Example 151, 1-[N-(5-Acetyl-2-methoxy-6-methylpyridin-3-yl)-N-methylaminocarbonyl]-4-(3,5-dimethylphenyl)piperazine] | 0.037 (≈ 0.0901 µM) | 0.004 (≈ 0.00974 µM) | 0.007 (≈ 0.0171 µM) | 0.007 (≈ 0.0171 µM) | 0.008 (≈ 0.0195 µM) | 
7 | COc1cc(OC)cc(N2CCN(C(=O)N(C)c3cc(C(C)O)c(C)nc3OC)CC2)c1 (stereo not drawn) [Example 152, 1-{N-[5-(1-Hydroxyethyl)-2-methoxy-6-methylpyridin-3-yl]-N-methylaminocarbonyl}-4-(3,5-dimethoxyphenyl)piperazine] | 0.44 (≈ 0.99 µM) | 0.18 (≈ 0.405 µM) | 0.26 (≈ 0.585 µM) | 0.2 (≈ 0.45 µM) | 0.37 (≈ 0.832 µM) | 
8 | CCC(C)(O)c1cc(N(C)C(=O)N2CCN(c3cc(C)cc(C)c3)CC2)c(OC)nc1C (stereo not drawn) [Example 156, 1-{N-[5-(1-Hydroxy-1-methylpropyl)-2-methoxy-6-methylpyridin-3-yl]-N-methylaminocarbonyl}-4-(3,5-dimethylphenyl)piperazine] | 0.07 (≈ 0.159 µM) | 0.06 (≈ 0.136 µM) | 0.06 (≈ 0.136 µM) | 0.09 (≈ 0.204 µM) | 0.1 (≈ 0.227 µM) | 

More lines, main results first:

Row | IC50 (HCT-15 (human colon)) [mg/L] | IC50 [1] [mg/L] | IC50 (XF 498 (human CNS)) [mg/L] | IC50 (SKMEL-2 (human melanoma); [2]) [mg/L] | IC50 (SKOV-3 (human ovarian)) [mg/L] | SMILES | IC50 (SKMEL-2 (human melanoma); SK-MEL-2, 48 h, read-out: ED50) [mg/L]
9 | 0.04 (≈ 0.0965 µM) | 0.03 (≈ 0.0724 µM) | 0.04 (≈ 0.0965 µM) | 0.03 (≈ 0.0724 µM) | 0.01 (≈ 0.0241 µM) | COc1cc(OC)cc(N2CCN(C(=O)N(C)c3cc(C)c(C)nc3OC)CC2)c1 [Example 132, 1-[N-(5,6-Dimethyl-2-methoxypyridin-3-yl)-N-methylaminocarbonyl]-4-(3,5-dimethoxyphenyl)piperazine] | 
10 | 0.57 (≈ 1.33 µM) | 0.57 (≈ 1.33 µM) | 0.61 (≈ 1.42 µM) | 0.53 (≈ 1.24 µM) | 0.94 (≈ 2.19 µM) | CCN(C(=O)N1CCN(c2cc(OC)cc(OC)c2)CC1)c1cc(C)c(C)nc1OC [Example 133, 1-[N-Ethyl-N-(5,6-dimethyl-2-methoxypyridin-3-yl)aminocarbonyl]-4-(3,5-dimethoxyphenyl)piperazine] | 
11 | 0.0065 (≈ 0.0147 µM) | 0.0009 (≈ 0.00203 µM) | 0.002 (≈ 0.00452 µM) | 0.0086 (≈ 0.0194 µM) | 0.0091 (≈ 0.0206 µM) | COc1cc(OC)cc(N2CCN(C(=O)N(c3cc(C)c(C)nc3OC)C(C)C)CC2)c1 [Example 134, 1-[N-Isopropyl-N-(5,6-dimethyl-2-methoxypyridin-3-yl)aminocarbonyl]-4-(3,5-dimethoxyphenyl)piperazine] | 
12 | 0.0108 (≈ 0.0252 µM) | 0.0004 (≈ 0.000933 µM) | 0.0009 (≈ 0.0021 µM) | 0.0121 (≈ 0.0282 µM) | 0.0095 (≈ 0.0222 µM) | CCc1cc(N(C)C(=O)N2CCN(c3cc(OC)cc(OC)c3)CC2)c(OC)nc1C [Example 143, 1-[N-(5-Ethyl-2-methoxy-6-methylpyridin-3-yl)-N-methylaminocarbonyl]-4-(3,5-dimethoxyphenyl)piperazine] | 
